Experimental data from US9988430B2, “Stable GLP-1 based GLP-1/glucagon receptor co-agonists” (Novo Nordisk A/S, priority 2014, dated 2018).
*1 amine or outer side, *2 acyl side, *3 side chain or, on linkers, in order; H or OH if unused. Where a SMILES comes first, the peptide text is derived from it. Bridges are numbered along the chain shown (N, C = ends). Roman numbers before positions name the chains, in order. Side-chain parts run from the residue outwards. [ ]: non-standard residue; d: D form. The star is where a group is joined. C20 diacid = O=C(O)CCCCCCCCCCCCCCCCCCC(=O)*; C18 diacid = O=C(O)CCCCCCCCCCCCCCCCC(=O)*; γGlu = O=C(O)[C@H](CCC(=O)[*:2])N[*:1]; Desaminohistidyl = O=C(CCc1c[nH]cn1)*; AEEA = NCCOCCOCC(=O)O; Aib = CC(C)(N)C(=O)O

Target: T1, human GLP-1 receptor (Homo sapiens, UniProt P43220)
T1 construct: expressed in transfected cells; host or cells: membranes of BHK cells, parent line BHKTS13, clone FCW467-12A
T1 sequence (P43220 24-463): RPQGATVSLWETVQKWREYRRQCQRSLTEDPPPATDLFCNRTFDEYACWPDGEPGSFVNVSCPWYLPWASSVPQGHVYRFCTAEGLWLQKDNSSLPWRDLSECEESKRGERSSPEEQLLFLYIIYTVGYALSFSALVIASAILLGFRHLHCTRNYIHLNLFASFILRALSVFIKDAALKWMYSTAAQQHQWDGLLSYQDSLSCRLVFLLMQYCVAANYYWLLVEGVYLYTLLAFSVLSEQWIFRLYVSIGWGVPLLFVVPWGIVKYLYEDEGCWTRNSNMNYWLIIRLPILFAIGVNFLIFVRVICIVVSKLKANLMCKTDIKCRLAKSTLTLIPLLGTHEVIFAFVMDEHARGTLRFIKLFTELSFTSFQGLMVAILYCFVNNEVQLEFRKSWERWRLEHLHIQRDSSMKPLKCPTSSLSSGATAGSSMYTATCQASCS
Test: Assay (II)(a): GLP-1 receptor binding, [125I]GLP-1 displacement, SPA on BHK membranes
Settings: displacement of [125I]GLP-1, membranes with human GLP-1 receptor; read-out: IC50 GLP-1R
Description: Assay (II): GLP-1 and Glucagon Receptor Binding The purpose of this assay is to test the in vitro receptor binding activity of the GLP-1 derivatives of the invention. (a) GLP-1 Receptor Binding The GLP-1 receptor (GLP-1R) binding is a measure of the affinity of a derivative for the human GLP-1 receptor. The GLP-1 receptor binding of each derivatives were determined with competitive binding, displacing [^125I]GLP-1 bound to GLP-1 receptors expressed in cell membranes associated with wheat germ agglutinin (WGA) scintillation proximity assay (SPA) beads. Each derivative was added in a series of concentrations to isolated membranes comprising the human GLP-1 receptor and displacement of the labelled radioligand was monitored. The receptor binding was reported as the concentration at which half of the labelled ligand is displaced from the receptor, the IC^50 value. The following chemicals were used in the assay: MEM w/o phenol red (Gibco 11880-028), Pen/strep (Invitrogen 15140-122), G418 (Invitrogen 10131-027), 1 M Hepes (Gibco 15630), EDTA (Invitrogen 15575-038), PBS (Invitrogen 14190-094), fetal calf serum (Invitrogen 16140-071), EGTA, MgCl2 (Merck 1.05832.1000), Tween 20 (Amresco 0850C335), SPA particles (wheat germ agglutinin (WGA) SPA beads, Perkin Elmer RPNQ0001), [125I]-GLP-1]-(7-36)NH2 (produced in-house), OptiPlate™-96 (Perkin Elmer). Buffer 1 consisted of 20 mM Na-HEPES plus 10 mM EDTA and pH was adjusted to 7.4. Buffer 2 consisted of 20 mM Na-HEPES plus 0.1 mM EDTA and pH was adjusted to 7.4. Assay buffer consisted of 50 mM HEPES supplemented with 5 mM EGTA, 5 mM MgCl2, 0.005% Tween 20 and pH was adjusted to 7.4. A 0.02% albumin stock consisted of HSA dissolved at 0.02% (w/v) in assay buffer. The cells used in this assay (clone FCW467-12A) were BHK cells with BHKTS13 as a parent cell line. The cells express the human GLP-1 receptor. The cells were grown at 5% CO2 in DMEM, 10% fetal calf serum, 1% Pen/Strep (Penicillin/Streptomycin) and 1.0 mg/ml of the selection marker G418. To make a membrane preparation the cells were grown to approximately 80% confluence. The cells were washed twice in phosphate-buffered saline and harvested. The cells were pelleted using a brief centrifugation and the cell pellet was kept on ice. The cell pellet was homogenised with ULTRA-THURRAX dispersing instrument for 20-30 seconds in a suitable amount of buffer 1 (e.g., 10 ml). The homogenate was centrifuged for 15 minutes. The pellet was re-suspended (homogenised) in 10 ml buffer 2 and centrifuged. This step was repeated once more. The resulting pellet was re-suspended in buffer 2 and the protein concentration was determined. The membranes were aliquoted and stored at minus 80° C. • 1. For the receptor binding assay 50 μl of the assay buffer was added to each well of an assay plate. • 2. Test compounds were serially diluted to give the following concentrations: 8×10EE-7 M, 8×10EE-8 M, 8×10EE-9 M, 8×10EE-10 M, 8×10EE-11 M, 8×10EE-12 M and 8×10EE-13 M. Twenty-five μl were added to appropriate wells in the assay plate. • 3. Cell membrane aliquots were thawed and diluted to their working concentration. Fifty μl were added to each well in the assay plate. • 4. WGA SPA beads were suspended in assay buffer at 20 mg/ml. The suspension was diluted to 10 mg/ml in assay buffer just prior to addition to the assay plate. Fifty μl were added to each well in the assay plate. • 5. The incubation was started by adding 25 μl of 480 pM solution of [125I]-GLP-1]-(7-36)NH2 to each well of the assay plate. A 25 μl aliquot was reserved for measuring total counts/well. • 6. The assay plate was incubated for 2 h at 30° C. • 7. The assay plate was centrifuged for 10 min. • 8. The assay plate was read in a Perkin Elmer TopCount NXT instrument. Calculations The data from the TopCount instrument were transferred to GraphPad Prism software. The software averaged the values for the replicates and performed a non-linear regression. IC50 values were calculated by the software and reported in nM. […]

Row | IC50 [nM] | SMILES
1 | 0.2 | CC[C@H](C)[C@H](NC(=O)[C@H](Cc1ccccc1)NC(=O)[C@H](CCC(=O)O)NC(=O)[C@H](CCCNC(=N)N)NC(=O)[C@H](C)NC(=O)[C@H](C)NC(=O)[C@H](CCC(N)=O)NC(=O)[C@H](CCC(=O)O)NC(=O)[C@H](CCC(=O)O)NC(=O)[C@H](CC(C)C)NC(=O)[C@H](Cc1ccc(O)cc1)NC(=O)[C@H](CCCCN)NC(=O)[C@H](CO)NC(=O)[C@@H](NC(=O)[C@H](CC(=O)O)NC(=O)[C@H](CO)NC(=O)[C@@H](NC(=O)[C@H](Cc1ccccc1)NC(=O)[C@@H](NC(=O)CNC(=O)[C@H](Cc1c[nH]cn1)NC(=O)C(C)(C)NC(=O)CCc1c[nH]cn1)[C@@H](C)O)[C@@H](C)O)C(C)C)C(=O)N[C@@H](C)C(=O)N[C@@H](Cc1c[nH]c2ccccc12)C(=O)N[C@@H](CC(C)C)C(=O)N[C@H](C(=O)N[C@@H](CCCCNC(=O)COCCOCCNC(=O)COCCOCCNC(=O)CC[C@H](NC(=O)CC[C@H](NC(=O)CCCCCCCCCCCCCCCCC(=O)O)C(=O)O)C(=O)O)C(=O)N[C@H](C(N)=O)[C@@H](C)O)[C@@H](C)CC [Example 42, N^ε34-[2-[2-[2-[[2-[2-[2-[[(4S)-4-carboxy-4-[[(4S)-4-carboxy-4-(17-carboxyheptadecanoylamino)butanoyl]amino]butanoyl]amino]ethoxy]ethoxy]acetyl]amino]ethoxy]ethoxy]acetyl]-[Imp7,Aib8, His9,Lys18,Glu22,Arg26,Ile33,Thr35]-GLP-1-(7-35)-peptide amide] (Desaminohistidyl-[Aib]HGTFTSDVSKYLEEQAAREFIAWLIK([AEEA-AEEA-γGlu-γGlu-C18 diacid])T-NH2)
2 | 0.4 | CC[C@H](C)[C@H](NC(=O)[C@H](Cc1ccccc1)NC(=O)[C@H](CCC(=O)O)NC(=O)[C@H](CCCNC(=N)N)NC(=O)[C@H](C)NC(=O)[C@H](C)NC(=O)[C@H](CCC(N)=O)NC(=O)[C@H](CCC(=O)O)NC(=O)[C@H](CCC(=O)O)NC(=O)[C@H](CC(C)C)NC(=O)[C@H](Cc1ccc(O)cc1)NC(=O)[C@H](CCCCN)NC(=O)[C@H](CO)NC(=O)[C@@H](NC(=O)[C@H](CC(=O)O)NC(=O)[C@H](CO)NC(=O)[C@@H](NC(=O)[C@H](Cc1ccccc1)NC(=O)[C@@H](NC(=O)CNC(=O)[C@H](Cc1c[nH]cn1)NC(=O)C(C)(C)NC(=O)CCc1c[nH]cn1)[C@@H](C)O)[C@@H](C)O)C(C)C)C(=O)N[C@@H](C)C(=O)N[C@@H](Cc1c[nH]c2ccccc12)C(=O)N[C@@H](CC(C)C)C(=O)N[C@@H](CC(C)C)C(=O)N[C@@H](CCCCNC(=O)COCCOCCNC(=O)COCCOCCNC(=O)CC[C@H](NC(=O)CC[C@H](NC(=O)CCCCCCCCCCCCCCCCCCC(=O)O)C(=O)O)C(=O)O)C(=O)N[C@H](C(N)=O)[C@@H](C)O [Example 40, N^ε34-[2-[2-[2-[[2-[2-[2-[[(4S)-4-carboxy-4-[[(4S)-4-carboxy-4-(19-carboxynonadecanoylamino)butanoyl]amino]butanoyl]amino]ethoxy]ethoxy]acetyl]amino]ethoxy]ethoxy]acetyl]-[Imp7,Aib8,His9,Lys18,Glu22,Arg26,Leu33,Thr35]-GLP-1-(7-35)-peptide amide] (Desaminohistidyl-[Aib]HGTFTSDVSKYLEEQAAREFIAWLLK([AEEA-AEEA-γGlu-γGlu-C20 diacid])T-NH2)
3 | 0.9 | CC[C@H](C)[C@H](NC(=O)[C@H](Cc1ccccc1)NC(=O)[C@H](CCC(=O)O)NC(=O)[C@H](CCCNC(=N)N)NC(=O)[C@H](C)NC(=O)[C@H](C)NC(=O)[C@H](CCCNC(=N)N)NC(=O)CNC(=O)[C@H](CCC(=O)O)NC(=O)[C@H](CC(C)C)NC(=O)[C@H](Cc1ccc(O)cc1)NC(=O)[C@H](CCCCN)NC(=O)[C@H](CO)NC(=O)[C@@H](NC(=O)[C@H](CC(=O)O)NC(=O)[C@H](CO)NC(=O)[C@@H](NC(=O)[C@H](Cc1ccccc1)NC(=O)[C@@H](NC(=O)CNC(=O)[C@H](Cc1c[nH]cn1)NC(=O)[C@H](C)NC(=O)CCc1c[nH]cn1)[C@@H](C)O)[C@@H](C)O)C(C)C)C(=O)N[C@@H](C)C(=O)N[C@@H](Cc1c[nH]c2ccccc12)C(=O)N[C@@H](CC(C)C)C(=O)N[C@@H](CC(C)C)C(=O)N[C@@H](CCCCNC(=O)COCCOCCNC(=O)COCCOCCNC(=O)CC[C@H](NC(=O)CC[C@H](NC(=O)CC[C@H](NC(=O)CCCCCCCCCCCCCCCCC(=O)O)C(=O)O)C(=O)O)C(=O)O)C(=O)NCC(=O)NCC(=O)NCC(=O)O [Example 11, N^ε34-[2-[2-[2-[[2-[2-[2-[[(4S)-4-carboxy-4-[[(4S)-4-carboxy-4-[[(4S)-4-carboxy-4-(17-carboxyheptadecanoylamino)butanoyl]amino]butanoyl]amino]butanoyl]amino]ethoxy]ethoxy]acetyl]amino]ethoxy]ethoxy]acetyl]-[Imp7,His9,Lys18,Arg23,Arg26,Leu33,Gly36]-GLP-1-(7-37)-peptide] (Desaminohistidyl-AHGTFTSDVSKYLEGRAAREFIAWLLK([AEEA-AEEA-γGlu-γGlu-γGlu-C18 diacid])GGG-OH)
4 | 2.3 | CC[C@H](C)[C@H](NC(=O)[C@H](Cc1ccccc1)NC(=O)[C@H](CCC(=O)O)NC(=O)[C@H](CCCNC(=N)N)NC(=O)[C@H](C)NC(=O)[C@H](C)NC(=O)[C@H](CCC(N)=O)NC(=O)[C@H](CCC(=O)O)NC(=O)[C@H](CCC(=O)O)NC(=O)[C@H](CC(C)C)NC(=O)[C@H](Cc1ccc(O)cc1)NC(=O)[C@H](CCCCN)NC(=O)[C@H](CO)NC(=O)[C@@H](NC(=O)[C@H](CC(=O)O)NC(=O)[C@H](CO)NC(=O)[C@@H](NC(=O)[C@H](Cc1ccccc1)NC(=O)[C@@H](NC(=O)CNC(=O)[C@H](Cc1c[nH]cn1)NC(=O)C(C)(C)NC(=O)CCc1c[nH]cn1)[C@@H](C)O)[C@@H](C)O)C(C)C)C(=O)N[C@@H](C)C(=O)N[C@@H](Cc1c[nH]c2ccccc12)C(=O)N[C@@H](CC(C)C)C(=O)N[C@@H](CC(C)C)C(=O)N[C@@H](CCCCNC(=O)CC[C@H](NC(=O)CC[C@H](NC(=O)[C@H](CO)NC(=O)CNC(=O)[C@H](CCC(=O)O)NC(=O)[C@H](CO)NC(=O)CNC(=O)CCCCCCCCCCCCCCCCC(=O)O)C(=O)O)C(=O)O)C(=O)N[C@H](C(=O)O)[C@@H](C)O [Example 27, N^ε34-[(4S)-4-carboxy-4-[[(4S)-4-carboxy-4-[[(2S)-2-[[2-[[(2S)-4-carboxy-2-[[(2S)-2-[[2-(17-carboxyheptadecanoylamino)acetyl]amino]-3-hydroxypropanoyl]amino]butanoyl]amino]acetyl]amino]-3-hydroxypropanoyl]amino]butanoyl]amino]butanoyl]-[Imp7,Aib8,His9,Lys18,Glu22,Arg26,Leu33,Thr35]-GLP-1-(7-35)-peptide] (I: Desaminohistidyl-[Aib]HGTFTSDVSKYLEEQAAREFIAWLLKT-OH / II: {C18 diacid}-GSEGS[γGlu][γGlu]; amide I:27-II:C)
